For experiment [1], the target named is T1, Serine/threonine-protein kinase Chk1 (Homo sapiens) (UniProt O14757).
T1 sequence (whole entry): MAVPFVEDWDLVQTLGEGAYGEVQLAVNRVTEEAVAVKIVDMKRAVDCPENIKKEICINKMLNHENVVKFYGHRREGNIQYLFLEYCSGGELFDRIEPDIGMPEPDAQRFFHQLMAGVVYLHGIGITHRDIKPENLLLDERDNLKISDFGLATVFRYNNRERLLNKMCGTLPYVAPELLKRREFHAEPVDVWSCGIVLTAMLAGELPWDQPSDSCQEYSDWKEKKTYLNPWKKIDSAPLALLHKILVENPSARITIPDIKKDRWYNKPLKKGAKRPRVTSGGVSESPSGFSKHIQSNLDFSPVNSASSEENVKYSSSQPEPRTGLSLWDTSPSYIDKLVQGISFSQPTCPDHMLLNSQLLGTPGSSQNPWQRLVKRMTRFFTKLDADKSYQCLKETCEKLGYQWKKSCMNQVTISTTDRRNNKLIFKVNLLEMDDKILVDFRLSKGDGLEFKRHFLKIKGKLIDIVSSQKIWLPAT
As to the kind of experiment: Inhibition of hydroxyurea-induced CHK1 phosphorylation at S317 residue in human HCT116 cells at 20 uM treated for 8 hrs starting from 24 hrs post hydroxyurea addition by Western blot analysis. In kind it is cell-based. (In western blotting, separated proteins are transferred to a membrane and probed.)

Experiment [2] has as its target Tyrosine-protein kinase ABL2 (Homo sapiens) (UniProt P42684). Nature of the experiment: Inhibition of human ABL2 assessed as residual activity at 1 uM using EAIYAAPFAKKK as substrate by [gamma-33P]-ATP assay relative to control.
For experiment [3], the target named is Protein-tyrosine kinase 6 (Homo sapiens) (UniProt Q13882). As to the kind of experiment: Inhibition of human BRK assessed as residual activity at 1 uM using poly[Glu:Tyr](4:1) as substrate by [gamma-33P]-ATP assay relative to control.
Experiment [4] addresses Calcium/calmodulin-dependent protein kinase type 1D (Homo sapiens) (UniProt Q8IU85). Nature of the experiment: Inhibition of human CAMK1D assessed as residual activity at 1 uM using KKALRRQETVDAL as substrate by [gamma-33P]-ATP assay relative to control.
In experiment [5] the target is Calcium/calmodulin-dependent protein kinase type IV (Homo sapiens) (UniProt Q16566). Nature of the experiment: Inhibition of human CAMK4 assessed as residual activity at 1 uM using KKLNRTLSFAEPG as substrate by [gamma-33P]-ATP assay relative to control.
Experiment [6] addresses Cyclin-dependent kinase 2/cyclin E1 (Homo sapiens) (UniProt P24864+P24941). As to the kind of experiment: Inhibition of human CDK2/cyclin-E assessed as residual activity at 1 uM using histone H1 as substrate by [gamma-33P]-ATP assay relative to control. Format: protein-complex assay.
Experiment [7] addresses Fibroblast growth factor receptor 3 (Homo sapiens) (UniProt P22607). Nature of the experiment: Inhibition of human FGFR3 assessed as residual activity at 1 uM using poly[Glu:Tyr] (4:1) as substrate by [gamma-33P]-ATP assay relative to control.
Experiment [8] addresses MAP kinase-activated protein kinase 5 (Homo sapiens) (UniProt Q8IW41). Nature of the experiment: Inhibition of human MAPKAPK5 assessed as residual activity at 1 uM using KKLNRTLSVA as substrate by [gamma-33P]-ATP assay relative to control.
Experiment [9] concerns the target MAP kinase-interacting serine/threonine-protein kinase 1 (Homo sapiens) (UniProt Q9BUB5). As to the kind of experiment: Inhibition of human MNK1 assessed as residual activity at 1 uM using MBP as substrate by [gamma-33P]-ATP assay relative to control.
In experiment [10] the target is Mitogen-activated protein kinase 12 (Homo sapiens) (UniProt P53778). As to the kind of experiment: Inhibition of human p38gamma assessed as residual activity at 1 uM using MBP as substrate by [gamma-33P]-ATP assay relative to control.
Chain of Mitogen-activated protein kinase 12 (Homo sapiens) (P53778 whole entry): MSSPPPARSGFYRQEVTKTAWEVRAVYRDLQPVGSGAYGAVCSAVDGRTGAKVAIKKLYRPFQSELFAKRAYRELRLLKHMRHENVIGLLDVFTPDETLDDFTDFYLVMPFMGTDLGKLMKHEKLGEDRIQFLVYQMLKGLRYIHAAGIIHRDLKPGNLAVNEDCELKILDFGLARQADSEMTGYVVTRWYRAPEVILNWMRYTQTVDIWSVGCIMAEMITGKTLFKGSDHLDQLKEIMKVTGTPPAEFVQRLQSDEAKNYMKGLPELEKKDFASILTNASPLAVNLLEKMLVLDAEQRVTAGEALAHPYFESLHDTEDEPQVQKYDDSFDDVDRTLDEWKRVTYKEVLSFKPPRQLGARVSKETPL
In experiment [11] the target is Serine/threonine-protein kinase PLK3 (Homo sapiens) (UniProt Q9H4B4). As to the kind of experiment: Inhibition of human PLK3 assessed as residual activity at 1 uM using casein as substrate by [gamma-33P]-ATP assay relative to control.
Chain of Serine/threonine-protein kinase PLK3 (Homo sapiens) (Q9H4B4 whole entry, looked up): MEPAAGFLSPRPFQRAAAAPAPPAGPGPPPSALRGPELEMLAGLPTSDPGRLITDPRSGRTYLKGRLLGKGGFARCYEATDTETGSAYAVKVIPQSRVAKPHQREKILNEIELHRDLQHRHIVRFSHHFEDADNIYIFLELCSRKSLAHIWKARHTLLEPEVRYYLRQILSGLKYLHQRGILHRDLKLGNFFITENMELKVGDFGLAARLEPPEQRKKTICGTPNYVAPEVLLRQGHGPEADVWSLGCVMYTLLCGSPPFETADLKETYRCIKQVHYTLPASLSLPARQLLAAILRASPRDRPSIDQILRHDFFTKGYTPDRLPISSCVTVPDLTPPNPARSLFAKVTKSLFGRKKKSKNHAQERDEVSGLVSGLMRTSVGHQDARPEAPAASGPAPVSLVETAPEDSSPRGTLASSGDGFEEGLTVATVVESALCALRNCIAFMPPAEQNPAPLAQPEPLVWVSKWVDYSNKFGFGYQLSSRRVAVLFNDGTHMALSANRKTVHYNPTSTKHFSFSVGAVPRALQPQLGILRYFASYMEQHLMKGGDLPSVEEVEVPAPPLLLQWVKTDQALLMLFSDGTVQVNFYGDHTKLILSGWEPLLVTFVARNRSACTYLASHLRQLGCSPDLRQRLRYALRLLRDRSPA
In experiment [12] the target is Dual serine/threonine and tyrosine protein kinase (Homo sapiens) (UniProt Q6XUX3). Nature of the experiment: Inhibition of human RIPK5 assessed as residual activity at 1 uM using MBP as substrate by [gamma-33P]-ATP assay relative to control.
The target of experiment [13] is Activated CDC42 kinase 1 (Homo sapiens) (UniProt Q07912). As to the kind of experiment: Inhibition of human ACK1 assessed as residual activity at 1 uM using EAIYAAPFAKKK as substrate by [gamma-33P]-ATP assay relative to control.
Chain of Activated CDC42 kinase 1 (Homo sapiens) (Q07912 whole entry, looked up): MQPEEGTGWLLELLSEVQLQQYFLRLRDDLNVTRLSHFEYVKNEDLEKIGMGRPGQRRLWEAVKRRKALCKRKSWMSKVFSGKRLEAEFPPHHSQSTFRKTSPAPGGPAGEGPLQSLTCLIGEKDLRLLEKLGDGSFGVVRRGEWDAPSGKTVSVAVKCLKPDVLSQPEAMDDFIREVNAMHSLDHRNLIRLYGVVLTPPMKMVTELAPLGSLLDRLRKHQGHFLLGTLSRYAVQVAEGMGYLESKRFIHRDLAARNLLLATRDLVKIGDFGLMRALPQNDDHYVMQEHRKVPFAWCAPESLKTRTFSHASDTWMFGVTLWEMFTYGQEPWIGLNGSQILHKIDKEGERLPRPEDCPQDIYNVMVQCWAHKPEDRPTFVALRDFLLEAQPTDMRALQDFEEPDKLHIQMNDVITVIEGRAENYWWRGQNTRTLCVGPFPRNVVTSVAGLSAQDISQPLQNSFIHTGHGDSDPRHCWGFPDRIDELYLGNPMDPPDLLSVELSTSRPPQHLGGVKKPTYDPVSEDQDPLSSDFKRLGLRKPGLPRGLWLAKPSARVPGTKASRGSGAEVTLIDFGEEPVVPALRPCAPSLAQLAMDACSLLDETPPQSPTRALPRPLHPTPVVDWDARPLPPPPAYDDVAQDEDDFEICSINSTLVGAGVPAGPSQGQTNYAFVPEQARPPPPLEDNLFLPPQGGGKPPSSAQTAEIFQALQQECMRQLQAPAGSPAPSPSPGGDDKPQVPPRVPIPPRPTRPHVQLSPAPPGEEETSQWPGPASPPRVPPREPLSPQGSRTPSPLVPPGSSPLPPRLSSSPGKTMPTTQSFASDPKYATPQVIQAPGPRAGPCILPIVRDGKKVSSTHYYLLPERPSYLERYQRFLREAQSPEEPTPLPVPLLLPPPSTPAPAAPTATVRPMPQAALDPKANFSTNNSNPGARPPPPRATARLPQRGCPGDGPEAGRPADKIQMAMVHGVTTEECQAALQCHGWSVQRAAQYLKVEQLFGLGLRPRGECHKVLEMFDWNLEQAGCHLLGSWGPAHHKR
Experiment [14] deals with Tyrosine-protein kinase Blk (Homo sapiens) (UniProt P51451). Nature of the experiment: Inhibition of human BLK assessed as residual activity at 1 uM using poly[Glu:Tyr](4:1) as substrate by [gamma-33P]-ATP assay relative to control.
In experiment [15] the target is CDK6/cyclin D1 (Homo sapiens) (UniProt P24385+Q00534). Nature of the experiment: Inhibition of human CDK6/cyclin-D1 assessed as residual activity at 1 uM using RB protein as substrate by [gamma-33P]-ATP assay relative to control. In kind it is protein-complex assay.
The target of experiment [16] is Focal adhesion kinase 1 (Homo sapiens) (UniProt Q05397). Nature of the experiment: Inhibition of human FAK assessed as residual activity at 1 uM using poly[Glu:Tyr] (4:1) as substrate by [gamma-33P]-ATP assay relative to control.
For experiment [17], the target named is MAP/microtubule affinity-regulating kinase 3 (Homo sapiens) (UniProt P27448). Nature of the experiment: Inhibition of human MARK3 assessed as residual activity at 1 uM using KKKVSRSGLYRSPSMPENLNRPR as substrate by [gamma-33P]-ATP assay relative to control.
The target of experiment [18] is Maternal embryonic leucine zipper kinase (Homo sapiens) (UniProt Q14680). Nature of the experiment: Inhibition of human MELK assessed as residual activity at 1 uM using KKLNRTLSFAEPG as substrate by [gamma-33P]-ATP assay relative to control.
Experiment [19] has as its target Serine/threonine-protein kinase Nek6 (Homo sapiens, UniProt Q9HC98). Nature of the experiment: Inhibition of human NEK6 assessed as residual activity at 1 uM using casein as substrate by [gamma-33P]-ATP assay relative to control.
Experiment [20] concerns the target Protein kinase C theta type (Homo sapiens) (UniProt Q04759). Nature of the experiment: Inhibition of human PKCtheta assessed as residual activity at 1 uM using Histone H1 as substrate by [gamma-33P]-ATP assay relative to control.
Experiment [21] addresses Serine/threonine-protein kinase N3 (Homo sapiens) (UniProt Q6P5Z2). Nature of the experiment: Inhibition of human PKN3 assessed as residual activity at 1 uM using KKLNRTLSVA as substrate by [gamma-33P]-ATP assay relative to control.
Experiment [22] has as its target Proto-oncogene tyrosine-protein kinase receptor Ret (Homo sapiens) (UniProt P07949). Nature of the experiment: Inhibition of human RET assessed as residual activity at 1 uM using KKKVSRSGLYRSPSMPENLNRPR as substrate by [gamma-33P]-ATP assay relative to control.
The target of experiment [23] is Serine/threonine-protein kinase ULK2 (Homo sapiens) (UniProt Q8IYT8). Nature of the experiment: Inhibition of human ULK2 assessed as residual activity at 1 uM using MBP as substrate by [gamma-33P]-ATP assay relative to control.

Calls of active or inactive are those of the source. No cut-off for these calls is given here.

Chain of Fibroblast growth factor receptor 3 (Homo sapiens) (P22607 23-806 limits assumed): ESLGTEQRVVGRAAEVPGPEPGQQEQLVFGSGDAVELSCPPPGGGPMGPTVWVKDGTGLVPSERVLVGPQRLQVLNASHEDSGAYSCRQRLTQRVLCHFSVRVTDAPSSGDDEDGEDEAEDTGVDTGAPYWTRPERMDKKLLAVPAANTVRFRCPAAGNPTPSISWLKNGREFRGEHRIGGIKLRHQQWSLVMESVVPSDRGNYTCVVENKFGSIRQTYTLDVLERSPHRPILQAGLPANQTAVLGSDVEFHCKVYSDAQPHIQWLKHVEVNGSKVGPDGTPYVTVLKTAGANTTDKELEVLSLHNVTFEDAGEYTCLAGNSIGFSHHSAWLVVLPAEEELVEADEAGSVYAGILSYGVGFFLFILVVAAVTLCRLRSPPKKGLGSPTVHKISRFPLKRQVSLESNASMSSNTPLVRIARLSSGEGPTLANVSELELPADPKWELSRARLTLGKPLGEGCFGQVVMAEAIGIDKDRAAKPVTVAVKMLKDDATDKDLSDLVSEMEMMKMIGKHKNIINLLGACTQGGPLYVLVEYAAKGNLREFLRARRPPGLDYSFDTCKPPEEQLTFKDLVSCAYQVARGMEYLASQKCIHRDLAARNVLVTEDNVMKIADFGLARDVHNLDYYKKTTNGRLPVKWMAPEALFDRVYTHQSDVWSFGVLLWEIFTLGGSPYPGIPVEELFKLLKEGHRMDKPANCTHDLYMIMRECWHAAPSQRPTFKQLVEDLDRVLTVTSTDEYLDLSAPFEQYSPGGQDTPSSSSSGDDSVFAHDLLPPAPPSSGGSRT
Chain of Proto-oncogene tyrosine-protein kinase receptor Ret (Homo sapiens) (P07949 whole entry): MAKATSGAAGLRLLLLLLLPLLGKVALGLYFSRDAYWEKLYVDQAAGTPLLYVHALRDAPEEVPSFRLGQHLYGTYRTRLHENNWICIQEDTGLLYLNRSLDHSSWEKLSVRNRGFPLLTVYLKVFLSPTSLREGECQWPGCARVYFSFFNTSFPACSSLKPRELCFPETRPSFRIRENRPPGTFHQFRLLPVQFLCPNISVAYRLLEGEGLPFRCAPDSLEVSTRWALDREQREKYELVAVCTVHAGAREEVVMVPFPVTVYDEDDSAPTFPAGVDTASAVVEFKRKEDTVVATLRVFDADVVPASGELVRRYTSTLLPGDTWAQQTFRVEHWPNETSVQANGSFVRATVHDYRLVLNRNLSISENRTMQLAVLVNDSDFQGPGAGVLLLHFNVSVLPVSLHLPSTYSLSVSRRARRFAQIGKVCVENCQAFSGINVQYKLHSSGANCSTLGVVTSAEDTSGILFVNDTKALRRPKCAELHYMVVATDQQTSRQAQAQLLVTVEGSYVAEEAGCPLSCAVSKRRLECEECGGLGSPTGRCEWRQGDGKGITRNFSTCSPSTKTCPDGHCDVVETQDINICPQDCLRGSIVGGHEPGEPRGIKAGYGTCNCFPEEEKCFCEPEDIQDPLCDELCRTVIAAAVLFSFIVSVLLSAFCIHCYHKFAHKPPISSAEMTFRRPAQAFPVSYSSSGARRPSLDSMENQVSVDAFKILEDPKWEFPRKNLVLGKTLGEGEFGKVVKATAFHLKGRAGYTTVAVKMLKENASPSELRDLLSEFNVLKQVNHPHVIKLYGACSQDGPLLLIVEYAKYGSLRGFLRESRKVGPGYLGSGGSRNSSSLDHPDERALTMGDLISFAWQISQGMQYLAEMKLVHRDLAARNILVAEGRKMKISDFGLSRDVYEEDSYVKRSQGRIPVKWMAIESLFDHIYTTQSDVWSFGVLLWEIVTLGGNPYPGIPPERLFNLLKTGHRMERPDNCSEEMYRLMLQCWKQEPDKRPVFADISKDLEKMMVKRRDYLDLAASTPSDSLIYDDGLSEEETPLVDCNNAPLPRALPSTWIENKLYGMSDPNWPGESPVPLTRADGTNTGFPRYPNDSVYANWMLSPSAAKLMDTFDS
Chain of MAP kinase-interacting serine/threonine-protein kinase 1 (Homo sapiens) (Q9BUB5 whole entry, looked up): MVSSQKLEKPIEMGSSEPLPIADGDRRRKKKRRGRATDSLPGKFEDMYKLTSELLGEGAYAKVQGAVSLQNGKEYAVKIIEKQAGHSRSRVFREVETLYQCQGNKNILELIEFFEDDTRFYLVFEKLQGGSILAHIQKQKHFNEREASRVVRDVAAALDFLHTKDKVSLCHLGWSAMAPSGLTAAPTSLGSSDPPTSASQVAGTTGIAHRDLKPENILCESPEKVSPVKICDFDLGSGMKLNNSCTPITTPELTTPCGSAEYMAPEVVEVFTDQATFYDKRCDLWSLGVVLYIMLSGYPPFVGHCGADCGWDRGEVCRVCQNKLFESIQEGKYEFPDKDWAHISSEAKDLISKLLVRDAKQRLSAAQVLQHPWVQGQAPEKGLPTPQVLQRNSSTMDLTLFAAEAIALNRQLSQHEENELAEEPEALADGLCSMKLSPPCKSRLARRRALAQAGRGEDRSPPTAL
Chain of Calcium/calmodulin-dependent protein kinase type 1D (Homo sapiens) (Q8IU85 whole entry, looked up): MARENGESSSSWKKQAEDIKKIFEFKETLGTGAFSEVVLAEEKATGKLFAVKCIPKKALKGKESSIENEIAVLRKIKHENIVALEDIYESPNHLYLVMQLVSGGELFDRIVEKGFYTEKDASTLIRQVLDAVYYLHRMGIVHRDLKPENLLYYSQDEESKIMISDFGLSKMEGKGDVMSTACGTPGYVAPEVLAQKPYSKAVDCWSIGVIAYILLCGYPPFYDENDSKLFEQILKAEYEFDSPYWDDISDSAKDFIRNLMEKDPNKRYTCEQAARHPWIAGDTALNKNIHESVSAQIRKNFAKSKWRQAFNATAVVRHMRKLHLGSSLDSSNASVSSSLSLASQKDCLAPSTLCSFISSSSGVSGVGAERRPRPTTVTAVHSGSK

In the case of `C(=C\c1ccccc1)/C[N+]12CN3CN(CN(C3)C1)C2`, in [1], the inhibition entry was “Active”. Moreover, the Activity was 93.5 to 96.7% in experiment [2]; 95.2 to 95.6% in experiment [3]; 98.4 to 98.8% in [4]; 92.2 to 94.4% in [5]; 96.3 to 96.9% in experiment [6]; 93.8 to 94.8% in experiment [7]. Besides, the Activity in experiment [8] lay in the range of 93.2 to 94.5%; in [9], 96.3 to 99.7%; in experiment [10] it was 93.7 to 94.8%; in experiment [11], 96.3 to 96.8%; in experiment [12], 91 to 92.4%.
As to `ClC/C=C/C[N+]12CN3CN(CN(C3)C1)C2`, the Activity in experiment [13] is 90.6 to 94.8%; in experiment [14] it was 93.1 to 94.8%; in experiment [15], 97.5 to 97.7%; in experiment [16], 92.5 to 96%; in experiment [17] it was 148 to 153%; in experiment [18], 93.8 to 96.1%. Moreover, the Activity in experiment [19] fell in the range of 95.3 to 95.6%; in experiment [20] it was 111 to 115%; in [21], 92.3 to 92.9%; in [22], 96.4 to 96.7%; in [23], 93.7 to 95.4%.
